According to the NIST ThermoML archive (doi:10.1021/acs.jced.9b00668):

Experiment: xn = mol fraction of the nth substance listed
Conditions: 298.15 K, 101.3 kPa, Liquid, Vibrating tube method

COC(C)=O [methyl ethanoate] + CC(C)CC(C)(C)C
Conditions	mass density [kg/m3]
x1 = 0.0646	693.5
x1 = 0.0822	695.3
x1 = 0.0859	695.7
x1 = 0.0992	697
x1 = 0.1566	703.6
x1 = 0.1941	707.9
x1 = 0.208	709.7
x1 = 0.224	711.7
x1 = 0.2636	717.1
x1 = 0.2688	717.7
x1 = 0.2957	721.6
x1 = 0.3211	725.4
x1 = 0.3319	727
x1 = 0.3956	737.4
x1 = 0.5015	757.3
x1 = 0.578	774
x1 = 0.5792	774.3
x1 = 0.6528	792.8
x1 = 0.6958	804.5
x1 = 0.7268	813.9
x1 = 0.7611	824.8
x1 = 0.7834	832.2
x1 = 0.8161	843.6
x1 = 0.8466	855.3
x1 = 0.848	855.8
x1 = 0.8628	861.6
x1 = 0.8632	861.9
x1 = 0.8889	872.5
x1 = 0.9179	885.5
x1 = 0.9388	895.1
x1 = 0.9406	895.7
x1 = 0.9456	898.3
x1 = 0.9574	904.3
x1 = 1	927.1

COC(C)=O [methyl ethanoate] + CCCCCCC
Conditions	mass density [kg/m3]
x1 = 0.0579	685.5
x1 = 0.0789	687.8
x1 = 0.0926	689.7
x1 = 0.1276	694.1
x1 = 0.1562	697.4
x1 = 0.1662	698.8
x1 = 0.1998	703.2
x1 = 0.2413	709.3
x1 = 0.2652	712.7
x1 = 0.2914	716.8
x1 = 0.3583	728.4
x1 = 0.4171	739
x1 = 0.43	741.6
x1 = 0.4682	749.3
x1 = 0.506	757.3
x1 = 0.5357	764
x1 = 0.584	775.6
x1 = 0.6338	788.4
x1 = 0.715	811.7
x1 = 0.7194	813
x1 = 0.7256	814.9
x1 = 0.7698	829
x1 = 0.7996	839.2
x1 = 0.8104	843.3
x1 = 0.8285	850.2
x1 = 0.8537	859.8
x1 = 0.8558	860.5
x1 = 0.8898	874.1
x1 = 0.901	879.1
x1 = 0.9172	885.8
x1 = 0.9284	890.8
x1 = 0.9598	905.6
x1 = 0.9631	907.4
x1 = 0.9735	912.8
x1 = 1	927.1
